Assay results taken from ChEMBL document CHEMBL5465560, “Selectivity Literature for EUbOPEN Chemogenomic Library” (2024).
Each block holds one compound with its values, some of them ahead of it.

Columns and labels:
[1] = biological target: Phosphatidylinositol 3-kinase catalytic subunit type 3 (Homo sapiens, UniProt Q8NEB9); assay: Selectivity interaction (Adapta Assay) EUB0001632a PIK3C3; settings: at 10 µM
[2] = biological target: T1, Mitogen-activated protein kinase kinase kinase 19 (Homo sapiens) (UniProt Q56UN5); assay: Selectivity interaction (KinomeScan (DiscoverX)) EUB0000666a MAP3K19; settings: at 10 µM
T1 sequence (whole entry): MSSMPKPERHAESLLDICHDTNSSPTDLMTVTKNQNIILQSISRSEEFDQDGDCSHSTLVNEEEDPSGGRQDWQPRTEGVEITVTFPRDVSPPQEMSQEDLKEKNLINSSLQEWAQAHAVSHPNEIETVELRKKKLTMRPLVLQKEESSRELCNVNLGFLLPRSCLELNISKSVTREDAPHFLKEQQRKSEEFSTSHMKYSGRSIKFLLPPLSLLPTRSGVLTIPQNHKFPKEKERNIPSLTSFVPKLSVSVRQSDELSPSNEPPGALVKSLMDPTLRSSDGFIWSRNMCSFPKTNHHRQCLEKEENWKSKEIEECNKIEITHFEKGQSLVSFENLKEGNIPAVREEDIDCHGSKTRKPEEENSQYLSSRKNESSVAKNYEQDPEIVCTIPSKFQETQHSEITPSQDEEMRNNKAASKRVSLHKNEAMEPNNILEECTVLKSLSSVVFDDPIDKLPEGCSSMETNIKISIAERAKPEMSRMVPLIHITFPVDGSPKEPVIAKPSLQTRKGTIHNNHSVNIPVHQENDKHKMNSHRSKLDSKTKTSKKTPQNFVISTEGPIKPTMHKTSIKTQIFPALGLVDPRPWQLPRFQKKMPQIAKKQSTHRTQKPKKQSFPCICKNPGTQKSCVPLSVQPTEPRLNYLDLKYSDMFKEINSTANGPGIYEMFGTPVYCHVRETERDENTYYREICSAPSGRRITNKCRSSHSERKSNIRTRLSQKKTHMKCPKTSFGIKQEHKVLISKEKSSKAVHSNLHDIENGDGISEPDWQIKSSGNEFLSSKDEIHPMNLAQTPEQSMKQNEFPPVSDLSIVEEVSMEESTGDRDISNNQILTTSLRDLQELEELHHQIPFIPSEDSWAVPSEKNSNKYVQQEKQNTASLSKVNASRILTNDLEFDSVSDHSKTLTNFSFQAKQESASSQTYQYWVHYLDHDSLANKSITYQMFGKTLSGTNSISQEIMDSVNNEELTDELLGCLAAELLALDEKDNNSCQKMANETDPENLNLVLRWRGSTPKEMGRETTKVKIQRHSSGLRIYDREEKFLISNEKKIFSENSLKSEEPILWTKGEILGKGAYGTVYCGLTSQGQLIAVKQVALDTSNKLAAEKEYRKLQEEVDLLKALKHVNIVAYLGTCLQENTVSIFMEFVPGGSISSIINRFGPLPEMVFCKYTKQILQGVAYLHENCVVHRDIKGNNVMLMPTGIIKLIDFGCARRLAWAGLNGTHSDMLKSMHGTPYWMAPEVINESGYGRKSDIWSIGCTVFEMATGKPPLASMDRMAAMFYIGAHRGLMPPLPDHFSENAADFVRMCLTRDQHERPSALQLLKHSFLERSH

[3] = biological target: Tyrosine-protein kinase HCK (Homo sapiens) (UniProt P08631); assay: Selectivity interaction (KinomeScan (DiscoverX)) EUB0000666a HCK; settings: at 10 µM
[4] = biological target: Transient receptor potential cation channel subfamily M member 6 (Homo sapiens) (UniProt Q9BX84); assay: Selectivity interaction (KinomeScan (DiscoverX)) EUB0000666a TRPM6; settings: at 10 µM
[5] = biological target: Receptor tyrosine-protein kinase erbB-2 (Homo sapiens, UniProt P04626); assay: Selectivity interaction (KinomeScan (DiscoverX)) EUB0000607a ERBB2; settings: at 10 µM
[6] = biological target: Serine/threonine-protein kinase WNK1 (Homo sapiens) (UniProt Q9H4A3); assay: Selectivity interaction (ActivX KiNativ screen (kinase selectivity in THP-1 cell lysates)) EUB0000639a WNK1; assay type: subcellular; settings: lysate, at 1 µM
[7] = biological target: Dual specificity protein kinase CLK2 (Homo sapiens, UniProt P49760); assay: Selectivity interaction (Kinase panel (Invitrogen)) EUB0000639a CLK2; settings: at 200 nM
Histamine H1 receptor = Histamine H1 receptor (Homo sapiens, UniProt P35367); assay: Selectivity interaction (Panel of non-epigenetic targets (kinases, GPCRs, ion channels, and transporters, Eurofins) ) EUB0000271b HRH1; settings: at 1 µM
[8] = biological target: T2, Serine/threonine-protein kinase DCLK1 (Homo sapiens) (UniProt O15075); assay: Selectivity interaction (Ambit KINOMEscan and KiNATiv profiling in Jurkat cells) EUB0000090b DCLK1; assay type: cell-based; settings: at 1 µM
T2 sequence (whole entry): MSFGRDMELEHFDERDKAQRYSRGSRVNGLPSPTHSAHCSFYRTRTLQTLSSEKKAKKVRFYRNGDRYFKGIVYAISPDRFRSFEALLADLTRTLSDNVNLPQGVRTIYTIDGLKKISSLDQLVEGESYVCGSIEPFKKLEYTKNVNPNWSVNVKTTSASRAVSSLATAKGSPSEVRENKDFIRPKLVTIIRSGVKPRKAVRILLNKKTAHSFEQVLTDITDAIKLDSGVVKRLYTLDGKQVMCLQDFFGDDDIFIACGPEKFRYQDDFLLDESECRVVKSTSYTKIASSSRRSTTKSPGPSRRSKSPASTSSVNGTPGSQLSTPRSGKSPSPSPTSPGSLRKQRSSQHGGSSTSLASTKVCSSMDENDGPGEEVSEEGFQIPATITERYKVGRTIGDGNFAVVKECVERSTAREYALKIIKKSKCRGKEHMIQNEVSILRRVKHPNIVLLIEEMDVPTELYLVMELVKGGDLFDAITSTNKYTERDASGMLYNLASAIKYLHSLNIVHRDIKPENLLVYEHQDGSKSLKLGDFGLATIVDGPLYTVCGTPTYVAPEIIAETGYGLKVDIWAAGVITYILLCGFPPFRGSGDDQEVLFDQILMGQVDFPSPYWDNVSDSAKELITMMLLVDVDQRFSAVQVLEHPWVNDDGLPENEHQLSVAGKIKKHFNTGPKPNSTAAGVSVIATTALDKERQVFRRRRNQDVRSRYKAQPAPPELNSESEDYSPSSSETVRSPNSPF

[9] = biological target: Histone-lysine N-methyltransferase ASH1L (Homo sapiens) (UniProt Q9NR48); settings: at 10 µM
[10] = Selectivity interaction (KinomeScan (DiscoverX)) EUB0000618a CDK2H; settings: at 10 µM

Sequence of Receptor tyrosine-protein kinase erbB-2 (P04626 whole entry): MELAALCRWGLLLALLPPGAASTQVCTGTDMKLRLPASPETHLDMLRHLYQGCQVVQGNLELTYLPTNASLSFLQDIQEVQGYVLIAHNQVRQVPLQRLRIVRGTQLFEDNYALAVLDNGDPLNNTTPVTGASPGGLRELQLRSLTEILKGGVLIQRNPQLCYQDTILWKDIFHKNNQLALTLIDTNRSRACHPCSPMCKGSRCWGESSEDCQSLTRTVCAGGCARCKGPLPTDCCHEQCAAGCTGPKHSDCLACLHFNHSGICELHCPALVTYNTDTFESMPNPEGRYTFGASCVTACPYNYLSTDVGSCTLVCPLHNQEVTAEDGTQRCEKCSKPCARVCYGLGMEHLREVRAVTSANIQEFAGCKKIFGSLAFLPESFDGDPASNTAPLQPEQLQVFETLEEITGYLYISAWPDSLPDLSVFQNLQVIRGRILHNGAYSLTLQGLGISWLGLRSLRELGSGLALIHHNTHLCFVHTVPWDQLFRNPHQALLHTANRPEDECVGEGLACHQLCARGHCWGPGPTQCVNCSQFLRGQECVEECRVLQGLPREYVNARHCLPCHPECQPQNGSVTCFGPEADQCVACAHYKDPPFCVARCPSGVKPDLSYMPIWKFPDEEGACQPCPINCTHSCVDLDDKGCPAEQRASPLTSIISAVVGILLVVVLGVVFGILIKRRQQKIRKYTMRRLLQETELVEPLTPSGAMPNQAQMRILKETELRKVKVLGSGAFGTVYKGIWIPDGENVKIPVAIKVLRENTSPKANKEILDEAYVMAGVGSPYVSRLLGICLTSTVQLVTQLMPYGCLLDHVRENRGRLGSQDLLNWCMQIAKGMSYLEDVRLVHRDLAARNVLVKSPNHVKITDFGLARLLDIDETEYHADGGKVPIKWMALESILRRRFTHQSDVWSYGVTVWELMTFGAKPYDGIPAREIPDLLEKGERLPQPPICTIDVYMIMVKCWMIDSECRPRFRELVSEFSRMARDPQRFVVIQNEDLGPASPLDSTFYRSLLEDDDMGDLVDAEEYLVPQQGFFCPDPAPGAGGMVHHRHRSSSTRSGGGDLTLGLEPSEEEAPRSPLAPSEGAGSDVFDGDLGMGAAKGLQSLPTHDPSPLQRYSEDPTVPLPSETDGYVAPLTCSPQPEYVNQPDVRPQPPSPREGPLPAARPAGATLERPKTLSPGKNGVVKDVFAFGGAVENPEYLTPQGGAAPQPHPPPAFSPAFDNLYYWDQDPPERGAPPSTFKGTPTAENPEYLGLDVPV
Sequence of Histamine H1 receptor (P35367 whole entry): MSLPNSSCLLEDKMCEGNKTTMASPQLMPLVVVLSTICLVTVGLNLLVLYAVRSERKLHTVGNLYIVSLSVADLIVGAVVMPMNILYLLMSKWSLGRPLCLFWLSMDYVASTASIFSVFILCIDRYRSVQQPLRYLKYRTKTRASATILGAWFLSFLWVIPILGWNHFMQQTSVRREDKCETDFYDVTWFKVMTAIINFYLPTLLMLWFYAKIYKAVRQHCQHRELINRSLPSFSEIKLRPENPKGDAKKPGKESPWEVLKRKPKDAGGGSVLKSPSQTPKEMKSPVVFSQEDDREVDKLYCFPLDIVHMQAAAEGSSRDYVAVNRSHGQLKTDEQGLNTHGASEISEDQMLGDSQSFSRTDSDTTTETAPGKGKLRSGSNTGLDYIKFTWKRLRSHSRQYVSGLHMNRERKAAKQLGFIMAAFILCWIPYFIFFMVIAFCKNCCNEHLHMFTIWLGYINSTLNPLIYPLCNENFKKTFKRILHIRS
Sequence of Transient receptor potential cation channel subfamily M member 6 (Homo sapiens) (Q9BX84 whole entry): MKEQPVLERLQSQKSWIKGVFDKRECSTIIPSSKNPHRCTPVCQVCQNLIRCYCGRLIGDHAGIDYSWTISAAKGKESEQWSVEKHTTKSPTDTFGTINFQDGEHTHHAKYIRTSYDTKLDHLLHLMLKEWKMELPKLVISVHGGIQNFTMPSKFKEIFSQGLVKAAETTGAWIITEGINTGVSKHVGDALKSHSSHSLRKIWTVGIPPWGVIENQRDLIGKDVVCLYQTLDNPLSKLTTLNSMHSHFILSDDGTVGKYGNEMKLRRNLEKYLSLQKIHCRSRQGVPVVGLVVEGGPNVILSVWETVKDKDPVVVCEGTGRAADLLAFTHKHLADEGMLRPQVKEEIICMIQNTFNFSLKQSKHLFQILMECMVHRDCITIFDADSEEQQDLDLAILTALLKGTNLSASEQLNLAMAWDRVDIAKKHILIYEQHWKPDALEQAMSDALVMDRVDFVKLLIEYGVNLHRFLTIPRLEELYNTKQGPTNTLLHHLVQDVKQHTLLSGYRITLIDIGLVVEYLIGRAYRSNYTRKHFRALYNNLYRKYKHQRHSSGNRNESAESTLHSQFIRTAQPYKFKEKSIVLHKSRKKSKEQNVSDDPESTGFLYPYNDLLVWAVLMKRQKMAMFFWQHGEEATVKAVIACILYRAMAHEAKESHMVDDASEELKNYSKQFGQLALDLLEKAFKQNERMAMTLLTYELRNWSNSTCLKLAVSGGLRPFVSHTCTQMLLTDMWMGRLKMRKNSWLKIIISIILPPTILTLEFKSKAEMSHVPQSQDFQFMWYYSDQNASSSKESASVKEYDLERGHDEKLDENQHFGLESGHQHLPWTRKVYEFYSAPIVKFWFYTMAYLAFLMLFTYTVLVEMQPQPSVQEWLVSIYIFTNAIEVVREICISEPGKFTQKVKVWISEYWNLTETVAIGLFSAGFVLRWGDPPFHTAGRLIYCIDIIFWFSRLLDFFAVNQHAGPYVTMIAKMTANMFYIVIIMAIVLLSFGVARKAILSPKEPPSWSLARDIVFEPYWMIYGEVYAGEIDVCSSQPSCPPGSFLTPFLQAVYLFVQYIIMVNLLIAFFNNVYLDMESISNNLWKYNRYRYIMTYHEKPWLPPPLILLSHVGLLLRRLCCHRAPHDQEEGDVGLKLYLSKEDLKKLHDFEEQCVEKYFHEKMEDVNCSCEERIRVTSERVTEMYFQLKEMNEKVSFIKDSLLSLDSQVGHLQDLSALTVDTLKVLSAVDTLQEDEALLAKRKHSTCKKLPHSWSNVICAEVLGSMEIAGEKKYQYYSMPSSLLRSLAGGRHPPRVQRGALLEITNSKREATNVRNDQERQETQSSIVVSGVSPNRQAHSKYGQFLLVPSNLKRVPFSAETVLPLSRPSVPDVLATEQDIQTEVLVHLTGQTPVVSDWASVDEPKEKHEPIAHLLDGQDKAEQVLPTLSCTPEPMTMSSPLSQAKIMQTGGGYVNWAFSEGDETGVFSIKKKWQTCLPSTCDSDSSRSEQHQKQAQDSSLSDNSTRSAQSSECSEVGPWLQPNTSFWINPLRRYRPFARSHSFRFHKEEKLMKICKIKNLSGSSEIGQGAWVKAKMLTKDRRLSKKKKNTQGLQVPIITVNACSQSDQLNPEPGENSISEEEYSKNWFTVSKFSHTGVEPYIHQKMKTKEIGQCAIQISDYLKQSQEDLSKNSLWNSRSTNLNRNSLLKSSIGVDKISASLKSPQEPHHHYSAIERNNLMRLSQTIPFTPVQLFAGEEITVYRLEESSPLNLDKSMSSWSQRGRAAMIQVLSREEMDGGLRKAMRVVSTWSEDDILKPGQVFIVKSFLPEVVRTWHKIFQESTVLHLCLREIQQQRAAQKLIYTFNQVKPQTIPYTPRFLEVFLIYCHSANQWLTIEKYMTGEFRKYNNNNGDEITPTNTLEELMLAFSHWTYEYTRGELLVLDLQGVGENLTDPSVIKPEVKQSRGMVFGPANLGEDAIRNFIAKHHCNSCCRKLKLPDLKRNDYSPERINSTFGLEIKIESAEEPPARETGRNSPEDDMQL
Sequence of Tyrosine-protein kinase HCK (Homo sapiens) (P08631 2-526 limits assumed): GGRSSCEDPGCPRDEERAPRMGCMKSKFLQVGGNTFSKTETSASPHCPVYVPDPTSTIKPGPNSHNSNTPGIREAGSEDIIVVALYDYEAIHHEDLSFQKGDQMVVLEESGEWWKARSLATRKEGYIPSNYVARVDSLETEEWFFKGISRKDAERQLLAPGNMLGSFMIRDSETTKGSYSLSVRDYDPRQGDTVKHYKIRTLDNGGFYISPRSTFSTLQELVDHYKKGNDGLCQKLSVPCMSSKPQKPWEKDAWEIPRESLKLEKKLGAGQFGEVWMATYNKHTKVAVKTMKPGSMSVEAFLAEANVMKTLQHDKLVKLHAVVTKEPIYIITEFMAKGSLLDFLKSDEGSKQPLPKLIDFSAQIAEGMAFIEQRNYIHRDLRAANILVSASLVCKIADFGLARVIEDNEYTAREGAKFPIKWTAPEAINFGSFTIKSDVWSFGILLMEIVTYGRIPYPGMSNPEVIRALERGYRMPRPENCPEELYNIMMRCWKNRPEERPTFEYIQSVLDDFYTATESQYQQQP
Sequence of Dual specificity protein kinase CLK2 (P49760 whole entry, looked up): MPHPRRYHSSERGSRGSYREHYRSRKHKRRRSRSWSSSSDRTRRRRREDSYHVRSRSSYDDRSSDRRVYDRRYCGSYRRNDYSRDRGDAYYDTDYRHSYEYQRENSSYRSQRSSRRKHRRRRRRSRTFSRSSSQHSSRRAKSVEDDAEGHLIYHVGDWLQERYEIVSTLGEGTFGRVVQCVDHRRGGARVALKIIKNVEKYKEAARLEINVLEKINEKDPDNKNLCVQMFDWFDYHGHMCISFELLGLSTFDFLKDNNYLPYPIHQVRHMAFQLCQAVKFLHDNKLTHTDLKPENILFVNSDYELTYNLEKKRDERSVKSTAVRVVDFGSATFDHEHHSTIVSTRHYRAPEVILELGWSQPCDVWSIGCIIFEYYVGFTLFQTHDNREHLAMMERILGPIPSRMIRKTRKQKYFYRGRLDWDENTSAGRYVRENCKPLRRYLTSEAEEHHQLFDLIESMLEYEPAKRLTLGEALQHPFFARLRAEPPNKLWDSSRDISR

% of inhibition [1]: -28%
SMILES: Cn1cc(-n2cnc3c(NCc4nc5cc(Cl)c(Cl)cc5[nH]4)nc(N4CCOCC4)nc32)cn1

SMILES: O=C(NOC[C@H](O)CO)c1ccc(F)c(F)c1Nc1ccc(I)cc1F
% of control [2]: 100%
% of control [3]: 100%
% of control [4]: 100%

SMILES: CNC(=O)Nc1ccc(-c2nc(N3CC4CCC(C3)O4)c3cnn(C4CCC5(CC4)OCCO5)c3n2)cc1
% of control [5]: 88%

% of inhibition [6]: -7.7%
% of inhibition [7]: 14.8%
SMILES: CC[C@@H]1[C@H](F)C(=O)N[C@@H]1COc1nccc2cc(C(N)=O)c(OC)cc12 [ZIMLOVISERTIB]

SMILES: Cc1cc(C)cc([C@@H]2c3cc(C)ccc3NC(=O)CN2C(=O)c2ccc(Br)s2)c1
% of inhibition (Histamine H1 receptor): 0%

SMILES: CN(C)C/C=C/C(=O)Nc1ccc(C(=O)N2CCCC(Nc3ncc(Cl)c(-c4c[nH]c5ccccc45)n3)C2)cc1 (stereo unspecified)
% of control [8]: 58%

% activity [9]: > 90%
SMILES: CNCCN1CCC(c2cc(CN(C)C(=O)c3cccc(Oc4ccccc4)c3)ccn2)CC1

SMILES: O[C@H]1CC[C@H](Nc2ncc3nc(Nc4c(F)cc(F)cc4F)n([C@H]4CCOC4)c3n2)CC1
% of control [10]: 100%
